Laboratory results from patent US20170112732A1, “ENCAPSULATION OF ORAL CARE ACTIVE AGENTS” (KONINKLIJKE PHILIPS N.V., priority 2014, published 2017).
Counter-ions that a name gives are not always drawn.

Assay: Determination of ethyl formate solubility in paraffin oil (GC-FID)
Type: physicochemical
Procedure: 12 mL of ethyl formate (0.917 g/cm^3) were added to 18 mL of liquid paraffin (density, 0.830 g/cm^3) in a glass bottle. The bottle was then closed with butyl rubber stopper and aluminium crimp seal and seal with a hand crimper before vigorously mixing the system with a vortex for 2 min. The bottle containing the mixture was immersed in a temperature-controlled jacketed beaker for 24 h and to allow the formation of two distinct layers, an upper layer consisting of ethyl formate and Liquid paraffin and the lower layer with only ethyl formate. Samples were withdrawn from the upper layer with a needle, filtered and analysed using a gas chromatography with flame ionisation detector (GC-FID) under the conditions presented in table 2. The quantity of ethyl formate in the mixture was inferred from the calibration curve obtained with different concentration of ethyl formate diluted with anhydrous ethanol.

For `CCOC=O` [Ethyl formate, ethyl formate], the “Ethyl formate solubility in liquid paraffin” value (“Ethyl formate solubility” for short) (5 ° C.) was 13.4 % v/v, the “Ethyl formate solubility” value (10 ° C.) was 16.3 % v/v and the “Ethyl formate solubility” value (20 ° C.) was 26.8 % v/v. For the same compound, the “Ethyl formate solubility” value (30 ° C.) was 38.9 % v/v.
